Experimental findings from ChEMBL document CHEMBL5647694, “Novel orally bioavailable EZH1/2 dual inhibitors with greater antitumor efficacy than an EZH2 selective inhibitor” (Cancer Sci, 2017) are described below.

The target in experiment [1] is Activated CDC42 kinase 1 (Homo sapiens) (UniProt Q07912). Nature of the experiment: Inhibition of N-terminal GST-fused wild type human ACK catalytic domain (110 to 476 residues) expressed in baculovirus-infected Sf21 cells using WASP peptide as substrate at 1 uM in presence of ATP by Mobility shift assay.
The target in experiment [2] is Discoidin domain-containing receptor 2 (Homo sapiens) (UniProt Q16832). Nature of the experiment: Inhibition of N-terminal GST-fused human DDR2 cytoplasmic domain (422 to 855 residues) expressed in baculovirus-infected Sf21 cells using IRS1 as substrate at 1 uM in presence of ATP by Mobility shift assay.
Experiment [3] addresses Ephrin type-B receptor 1 (Homo sapiens) (UniProt P54762). Nature of the experiment: Inhibition of N-terminal GST-fused human EPHB1 cytoplasmic domain (578 to 984 residues) expressed in baculovirus-infected Sf21 cells using Blk/Lyntide as substrate at 1 uM in presence of ATP by Mobility shift assay.
Experiment [4] deals with Tyrosine-protein kinase Fes/Fps (Homo sapiens) (UniProt P07332). Nature of the experiment: Inhibition of N-terminal GST-fused full length human FES (1 to 413, 416 to 822 residues) expressed in baculovirus-infected Sf21 cells using Srctide as substrate at 1 uM in presence of ATP by Mobility shift assay.
Experiment [5] has as its target Insulin-like growth factor 1 receptor (Homo sapiens) (UniProt P08069). Nature of the experiment: Inhibition of N-terminal GST-fused human IGF1R cytoplasmic domain (959 to 1367 residues) expressed in baculovirus-infected Sf21 cells using IRS1 as substrate at 1 uM in presence of ATP by Mobility shift assay.
Experiment [6] has as its target cGMP-dependent protein kinase 2 (Homo sapiens) (UniProt Q13237). Nature of the experiment: Inhibition of N-terminal GST-fused full length human CGK2 (1 to 762 residues) expressed in baculovirus expression system using Kemptide as substrate at 1 uM in presence of ATP by Mobility shift assay.
Experiment [7] addresses Casein kinase I isoform alpha (Homo sapiens) (UniProt P48729). Kind of experiment: Inhibition of N-terminal GST-fused full length human CK1alpha (1 to 337 residues) expressed in baculovirus expression system using CKtide as substrate at 1 uM in presence of ATP by Mobility shift assay.
For experiment [8], the target named is Dual specificity protein kinase CLK1 (Homo sapiens) (UniProt P49759). Nature of the experiment: Inhibition of N-terminal GST fused human CLK1 catalytic domain (129 to 484 residues) expressed in baculovirus expression system using DYRKtide-F as substrate at 1 uM in presence of ATP by Mobility shift assay.
The target in experiment [9] is Glycogen synthase kinase-3 alpha (Homo sapiens) (UniProt P49840). Nature of the experiment: Inhibition of N-terminal GST-fused full length human GSK3-alpha (1 to 483 residues) expressed in baculovirus expression system using CREBtide-p as substrate at 1 uM in presence of ATP by Mobility shift assay.
The target of experiment [10] is Mitogen-activated protein kinase 9 (Homo sapiens) (UniProt P45984). Nature of the experiment: Inhibition of N-terminal GST-fused human JNK2 catalytic domain (1 to 364 residues) expressed in Escherichia coli expression system using Modified ERKtide as substrate at 1 uM in presence of ATP by Mobility shift assay.
Experiment [11] concerns the target NUAK family SNF1-like kinase 1 (Homo sapiens) (UniProt O60285). Kind of experiment: Inhibition of N-terminal GST-fused full length human Nuak1 (1 to 661 residues) expressed in baculovirus expression system using CHKtide as substrate at 1 uM in presence of ATP by Mobility shift assay.
In experiment [12] the target is Ribosomal protein S6 kinase beta-1 (Homo sapiens) (UniProt P23443). Nature of the experiment: Inhibition of N-terminal GST-fused human p70S6K catalytic domain (1 to 421 residues) expressed in baculovirus expression system using S6K2 peptide as substrate at 1 uM in presence of ATP by Mobility shift assay.
Experiment [13] addresses Serine/threonine-protein kinase PAK 5 (Homo sapiens) (UniProt Q9P286). Nature of the experiment: Inhibition of N-terminal GST-fused human PAK5 catalytic domain (425 to 719 residues) expressed in baculovirus expression system using DAPK1tide as substrate at 1 uM in presence of ATP by Mobility shift assay.
The target of experiment [14] is [Pyruvate dehydrogenase (acetyl-transferring)] kinase isozyme 4, mitochondrial (Homo sapiens) (UniProt Q16654). Kind of experiment: Inhibition of N-terminal GST-fused full length human PDHK4 (1 to 411 residues) expressed in Escherichia coli expression system using PDHKtide as substrate at 1 uM in presence of ATP by Mobility shift assay.
Experiment [15] concerns the target Phosphorylase b kinase gamma catalytic chain, skeletal muscle/heart isoform (Homo sapiens) (UniProt Q16816). Kind of experiment: Inhibition of N-terminal GST-fused full length human PHKG1 (1 to 387 residues) expressed in baculovirus expression system using GS peptide as substrate at 1 uM in presence of ATP by Mobility shift assay.
Experiment [16] has as its target Serine/threonine-protein kinase pim-1 (Homo sapiens) (UniProt P11309). Kind of experiment: Inhibition of N-terminal His-tagged full length human PIM1 (1 to 313 residues) expressed in baculovirus expression system using S6K2 peptide as substrate at 1 uM in presence of ATP by Mobility shift assay.
The target in experiment [17] is Protein kinase C beta type (Homo sapiens) (UniProt P05771). Nature of the experiment: Inhibition of N-terminal GST-fused human full length PKC-beta1 (1 to 671 residues ) expressed in baculovirus expression system using PKC peptide as substrate at 1 uM in presence of ATP by Mobility shift assay.
In experiment [18] the target is Protein kinase C gamma type (Homo sapiens) (UniProt P05129). Kind of experiment: Inhibition of N-terminal GST-fused human full length PKC-gamma(1 to 697 residues ) expressed in baculovirus expression system using PKC peptide as substrate at 1 uM in presence of ATP by Mobility shift assay.
For experiment [19], the target named is Protein kinase C eta type (Homo sapiens) (UniProt P24723). Kind of experiment: Inhibition of N-terminal GST-fused human full length PKC-eta (1 to 683 residues ) expressed in baculovirus expression system using PKC peptide as substrate at 1 uM in presence of ATP by Mobility shift assay.
Experiment [20] deals with Ribosomal protein S6 kinase alpha-6 (Homo sapiens) (UniProt Q9UK32). Kind of experiment: Inhibition of N-terminal GST-fused human full length RSK4 (1 to 745 residues) expressed in baculovirus expression system using S6K peptide(N-FL) as substrate at 1 uM in presence of ATP by Mobility shift assay.
Experiment [21] concerns the target Serine/threonine-protein kinase Sgk3 (Homo sapiens) (UniProt Q96BR1). Nature of the experiment: Inhibition of N-terminal GST-fused truncated human SGK3 (119 to 496 residues) expressed in baculovirus expression system using SGKtide as substrate at 1 uM in presence of ATP by Mobility shift assay.
The target in experiment [22] is Myosin light chain kinase 2, skeletal/cardiac muscle (Homo sapiens) (UniProt Q9H1R3). Kind of experiment: Inhibition of N-terminal GST-fused full length human skMLCK (1 to 596 residues) expressed in baculovirus expression system using MLCtide as substrate at 1 uM in presence of ATP by Mobility shift assay.

Each structure is given as a SMILES string.

For the compound `Cc1cc(C)c(CNC(=O)c2cc(Br)c3c(c2C)O[C@@](C)([C@H]2CC[C@H](N(C)C)CC2)O3)c(=O)[nH]1`, the inhibition in experiment [1] was 0.2%; in experiment [2] it was -0.2%; in [3], -2.7%; in experiment [4], -0.6%; in experiment [5], -2.9%; in experiment [6] it was -2.3%. In addition, the inhibition is 5.2% in experiment [7]; -3.3% in [8]; 1.8% in experiment [9]; -4% in [10]; -1.7% in experiment [11]; 4.3% in experiment [12]. For the same compound, the inhibition in experiment [13] is -4.3%; in experiment [14], -4.1%; in experiment [15], -1.5%; in experiment [16], 1.3%; in experiment [17], 6.9%; in experiment [18] it was 0%. Moreover, the inhibition in experiment [19] was 10.8%; in experiment [20], -2.5%; in experiment [21] it was -4.5%; in experiment [22] it was 2.4%.
In the case of `Cc1cc(C)c(CNC(=O)c2cc(Cl)c3c(c2C)O[C@@](C)([C@H]2CC[C@H](N(C)C)CC2)O3)c(=O)[nH]1` [VALEMETOSTAT], the inhibition in experiment [1] was -1.2%; in experiment [2] it was -2.8%; in experiment [3], -3.4%; in experiment [4], -2.7%; in experiment [5] it was -4.5%; in experiment [6], -4.3%. Further, the inhibition in experiment [7] is 5.2%; in experiment [8], 1.7%; in experiment [9] it was 1.9%; in experiment [10] it was -5%; in experiment [11], 3%; in [12] it was 1.5%. Also, the inhibition in experiment [13] was -3.9%; in [14], -4.3%; in experiment [15] it was -3.7%; in experiment [16], 17.1%; in [17] it was 1.8%; in experiment [18], 1%. Moreover, the inhibition in experiment [19] was 19.8%; in experiment [20], -0.5%; in [21], 0.3%; in [22] it was -1.6%.
